# Assay results published in patent US20250213558A1, “T-TYPE CALCIUM CHANNEL MODULATORS COMPRISING A PIPERAZINE OR 1,4-DIAZEPANE CORE AND METHODS OF USE THEREOF” (Praxis Precision Medicines, Inc., priority 2022, published 2025).
# Read-outs that look alike come from different tables or passages of the source.
# Biological target: T1, Human Cav3.1 calcium channel (Homo sapiens, UniProt O43497)
# T1 construct: expressed in transfected cells; host or cells: HEK-293 natClytin/TASK1+Cav3.1 cell line
# Assay: Human Cav3.1 calcium channel patch clamp assay (SyncroPatch 384PE; single point and IC50, voltage dependent block)
# Assay type: cell-based
# Settings: for % Inhibition (Single Point Data): patch clamp
# Procedure: Certain compounds (as indicated) were tested for Human Cav3.1 calcium channel activity via a patch clamp assay as disclosed herein.
# Pulse generation and data collection were performed with PatchController384 V1.3.0 and DataController384 V1.2.1 (Nanion Technologies). Offline analysis was performed using Excel and Graphpad Prism (V 8.4.2) with complete data files uploaded to Dotmatics. The access resistance and apparent membrane capacitance were estimated using built-in protocols. Current was recorded in whole cell configuration from a population of cells. The cells were lifted, triturated, and resuspended at 800,000 cells/ml. The cells were allowed to recover in the cell hotel prior to experimentation. Currents were recorded at room temperature. The external solution contained the following (in mM): NaCl 80, NMDG 60, KCl 4, MgCl2 1, CaCl2 6, glucose 5 and HEPES 10 (pH=7.4, Osmolarity˜300 mOsm). The extracellular solution was used as the wash, reference and compound delivery solution.
# The compound plate was created at 2× concentrated in the extracellular solution. The compound was diluted to 1:2 when added to the recording well. The amount of DMSO in the extracellular solution was held constant at the level used for the highest tested concentration. For the voltage clamp experiments on Cav3.1, data were sampled at 10 KHz. After establishment of the seal and the passage in the whole cell configuration, the cells were held at −120 mV. Cav3.1 current was evoked using a 100 ms step to −20 mV (to measure resting state block), followed by a 1600 ms step to −65 mV and a second 100 ms step to −20 mV (to measure voltage dependent block). The voltage protocol was applied every 15 seconds in the absence and in the presence of the compounds under investigation. […] Current amplitude (pA) was measured in the peak 1 and 2. The average of last 3 sweeps of each liquid period (vehicle, compound under investigation, full block) was calculated. Nickel-sensitive current was used to calculate the % of inhibition in the presence of the compound under investigation.
# [1] = Testing Conc 1.25, HEK-293 natClytin/TASK1+Cav3.1 cell line
# [2] = voltage dependent block (VDB), HEK-293 natClytin/TASK1+Cav3.1 cell line, read-out: Cav3.1 IC50
# [3] = Testing Conc 1, HEK-293 natClytin/TASK1+Cav3.1 cell line
# T1 sequence (O43497 whole entry): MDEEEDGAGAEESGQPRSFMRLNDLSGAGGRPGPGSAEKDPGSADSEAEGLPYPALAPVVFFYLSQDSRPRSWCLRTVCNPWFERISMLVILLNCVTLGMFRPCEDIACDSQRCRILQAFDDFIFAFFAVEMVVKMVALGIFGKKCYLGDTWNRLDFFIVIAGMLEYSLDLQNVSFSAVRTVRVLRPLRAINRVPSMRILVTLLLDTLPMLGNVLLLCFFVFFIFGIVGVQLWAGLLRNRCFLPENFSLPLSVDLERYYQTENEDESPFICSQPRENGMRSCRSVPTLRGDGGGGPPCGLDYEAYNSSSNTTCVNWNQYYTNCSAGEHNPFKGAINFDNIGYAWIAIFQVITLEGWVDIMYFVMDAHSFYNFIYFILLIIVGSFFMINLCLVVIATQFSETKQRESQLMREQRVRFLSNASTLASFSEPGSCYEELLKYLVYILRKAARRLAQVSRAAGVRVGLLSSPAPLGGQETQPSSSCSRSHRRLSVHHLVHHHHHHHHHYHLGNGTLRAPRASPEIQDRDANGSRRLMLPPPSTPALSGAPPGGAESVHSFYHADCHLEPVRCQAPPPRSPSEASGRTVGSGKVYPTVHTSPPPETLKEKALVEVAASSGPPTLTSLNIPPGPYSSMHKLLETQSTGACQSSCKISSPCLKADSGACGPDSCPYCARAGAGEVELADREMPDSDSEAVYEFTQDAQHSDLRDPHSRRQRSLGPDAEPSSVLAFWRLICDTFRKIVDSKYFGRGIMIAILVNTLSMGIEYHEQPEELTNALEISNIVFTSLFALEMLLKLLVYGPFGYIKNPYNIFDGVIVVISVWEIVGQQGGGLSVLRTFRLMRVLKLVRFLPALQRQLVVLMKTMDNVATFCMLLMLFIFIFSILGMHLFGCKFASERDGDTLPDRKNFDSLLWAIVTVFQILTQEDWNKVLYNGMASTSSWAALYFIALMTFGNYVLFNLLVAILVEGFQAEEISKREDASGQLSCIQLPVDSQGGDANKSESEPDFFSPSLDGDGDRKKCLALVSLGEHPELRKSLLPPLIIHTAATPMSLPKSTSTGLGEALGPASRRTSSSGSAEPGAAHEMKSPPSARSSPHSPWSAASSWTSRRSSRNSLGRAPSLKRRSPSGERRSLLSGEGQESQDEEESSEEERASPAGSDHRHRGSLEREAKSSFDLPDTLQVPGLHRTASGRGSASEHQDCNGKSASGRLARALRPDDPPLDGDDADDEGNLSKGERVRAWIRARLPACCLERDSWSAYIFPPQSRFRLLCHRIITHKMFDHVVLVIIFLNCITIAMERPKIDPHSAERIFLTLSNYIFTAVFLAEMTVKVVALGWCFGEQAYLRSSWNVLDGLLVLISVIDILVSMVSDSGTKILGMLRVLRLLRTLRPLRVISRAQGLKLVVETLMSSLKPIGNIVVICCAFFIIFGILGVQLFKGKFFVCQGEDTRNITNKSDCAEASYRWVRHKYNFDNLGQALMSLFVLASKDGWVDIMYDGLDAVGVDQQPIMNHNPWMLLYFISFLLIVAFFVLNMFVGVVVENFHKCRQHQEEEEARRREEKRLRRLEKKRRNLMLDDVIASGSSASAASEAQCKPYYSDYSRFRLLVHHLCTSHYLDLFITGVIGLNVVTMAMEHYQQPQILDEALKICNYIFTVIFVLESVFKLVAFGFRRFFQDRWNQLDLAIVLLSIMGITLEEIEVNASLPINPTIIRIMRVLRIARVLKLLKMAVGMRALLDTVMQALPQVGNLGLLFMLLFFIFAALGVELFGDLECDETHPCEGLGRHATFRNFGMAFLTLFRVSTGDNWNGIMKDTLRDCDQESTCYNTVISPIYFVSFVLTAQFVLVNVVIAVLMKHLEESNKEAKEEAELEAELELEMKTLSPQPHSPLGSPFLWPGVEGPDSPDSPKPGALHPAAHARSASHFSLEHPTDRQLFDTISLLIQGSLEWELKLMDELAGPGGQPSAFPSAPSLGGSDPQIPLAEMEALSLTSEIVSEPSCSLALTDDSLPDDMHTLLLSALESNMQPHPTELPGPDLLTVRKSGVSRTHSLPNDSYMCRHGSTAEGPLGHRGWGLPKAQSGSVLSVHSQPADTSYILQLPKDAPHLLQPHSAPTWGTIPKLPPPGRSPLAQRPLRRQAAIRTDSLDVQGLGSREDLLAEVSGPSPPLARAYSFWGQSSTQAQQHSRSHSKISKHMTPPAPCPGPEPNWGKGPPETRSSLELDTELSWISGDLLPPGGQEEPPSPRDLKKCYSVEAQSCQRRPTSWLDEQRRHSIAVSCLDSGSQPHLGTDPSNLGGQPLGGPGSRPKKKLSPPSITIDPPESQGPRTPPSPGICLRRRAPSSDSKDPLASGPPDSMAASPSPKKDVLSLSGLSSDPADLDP
SMILES,IC50,% Inhibition (Single Point Data) [1],IC50 [2],% Inhibition (Single Point Data) [3]
CC(C)(C)NC(=O)CN1C2CCC1CN(Cc1nc3c(Cl)cc(F)cc3[nH]1)C2 [Compound 64],< 0.0782 µM,100.15%,,
OC1(CN2CCN(Cc3nc4c(Cl)ccc(F)c4[nH]3)CC2)CCC(F)(F)CC1 [Compound 159],,76.669%,0.25 µM,
CC(C)(C)NC(=O)CN1C[C@@H]2C[C@H]1CN2CCNc1nccc2ccc(Cl)cc12 [Compound 60],,60.189%,0.605 µM,
Fc1ccc(Cl)c2nc(CN3CCN(CC(F)(F)C4CCCCC4)CC3)[nH]c12 [Compound 154],,75.83%,0.525 µM,
CC(C)(C)NC(=O)CN1C[C@@H]2CC[C@H]1CN2CC(=O)Nc1cc(F)cc(Cl)c1 [Compound 270],,95.978%,,
CC(C)(C)NC(=O)CN1C2CCC1CN(Cc1nc3c(C4CC4)cccc3[nH]1)C2 [Compound 203],,94.049%,,
COc1cc(NC(=O)CN2C[C@@H]3C[C@H]2CN3CC(=O)NC2(C(F)(F)F)CC2)ccc1F [Compound 311],,83.804%,0.385 µM,
O=C(CN1CCN(CCC2CCOCC2)CC1=O)Nc1cc(F)cc(Cl)c1 [Compound 38],,,,30.86%
N#CC1(CN2C3CC2CN(CC(=O)Nc2cc(F)cc(Cl)c2)C3)CCC(F)(F)CC1 [Compound 52],,51.764%,0.853 µM,
CC(C)(NC(=O)CN1CC2CC1CN2CC(=O)Nc1ccc(F)c(Cl)c1)C(F)(F)F (stereo not shown) [Compound 235],,92.093%,0.226 µM,
CC(C)(C)NC(=O)CN1CCN(Cc2cnc(-c3ccccc3)[nH]2)CC1 [Compound 43],,,,29.301%
CC(C)(C)NC(=O)CN1C2CCC1CN(Cc1nc3c(C(F)F)cccc3[nH]1)C2 [Compound 202],,100.89%,,
O=C(CN1CC2CC(C1)N2CC(=O)NC1(C(F)(F)F)CC1)Nc1ccc(F)c(C(F)(F)F)c1 [Compound 251],,80.59%,,
CC1(C)CCC(=O)N1CCN1C2CC1CN(Cc1nc3c(Cl)cc(F)cc3[nH]1)C2 [Compound 150],,66.439%,0.652 µM,
CC(C)Cc1cc(CNC(=O)CN2C[C@@H]3C[C@H]2CN3CC(=O)NC(C)(C)C)nn1-c1ccccc1 [Compound 302],,21.003%,3.32 µM,
Cc1cc(CNC(=O)CN2CCN(CC(=O)NC(C)(C)C)CC2)nn1-c1ccccc1 [Compound 2],,,,40.057%
COc1cc(Cl)cc(NC(=O)CN2C[C@@H]3C[C@H]2CN3CC(=O)NC(C)(C)C)c1 [Compound 282],,98.739%,0.0748 µM,
O[C@H]1CC[C@H](OCCN2C3CC2CN(Cc2nc4c(Cl)cc(F)cc4[nH]2)C3)CC1 [Compound 133],,72.888%,0.553 µM,
CC(C)(CO)NC(=O)CN1C2CCC1CN(Cc1nc3c(Cl)cc(F)cc3[nH]1)C2 [Compound 79],,100%,,
OC(CN1C2CC1CN(Cc1nc3c(Cl)cc(F)cc3[nH]1)C2)C1CCCCC1 (stereo not shown) [Compound 147],,99.075%,,
COc1cc(NC(=O)CN2CC3CC(C2)N3CC(=O)NC(C)(C)C)ccc1F [Compound 248],,64.348%,0.53 µM,
CC1(C)CCCC(=O)N1CCN1C2CC1CN(Cc1nc3c(Cl)cc(F)cc3[nH]1)C2 [Compound 103],,96.655%,0.109 µM,
CC(C)(C)NC(=O)CN1CC2CC1CN2CC(=O)Nc1ccc(F)c(Cl)c1 (stereo not shown) [Compound 233],,83.643%,0.232 µM,
COc1ccc(F)c2[nH]c(CN3CC4CC(C3)N4CC(=O)NC(C)(C)C)nc12 [Compound 175],,89.419%,0.147 µM,
O=C(CN1C2CC1CN(Cc1nc3c(Cl)cc(F)cc3[nH]1)C2)NC1(C(F)(F)F)COC1 [Compound 182],0.0648 µM,92.993%,,
CC(C)(C)NC(=O)CN1C[C@@H]2C[C@H]1CN2CC(=O)NC12CC3CC(C1)CC(OC(F)F)(C3)C2 [Compound 346],,86.624%,0.399 µM,
CC(C)(C)NC(=O)CN1CCC(CNc2nccc3c(F)cc(Cl)cc23)CC1 [Compound 123],,96.398%,0.243 µM,

SMILES,IC50,% Inhibition (Single Point Data) [1],IC50 [2],% Inhibition (Single Point Data) [3]
Fc1ccc(Cl)c2nc(CN3CCN(CC(F)C4CCCCC4)CC3)[nH]c12 (stereo not shown) [Compound 161],,95.402%,< 0.0782 µM,
CC(C)(C)OC(=O)CN1C2CC1CN(Cc1nc3c(Cl)cc(F)cc3[nH]1)C2 [Compound 139],,92.564%,0.153 µM,
CC(C)(C)NC(=O)CN1CC[C@@H](CNc2nccc3ccc(Cl)cc23)CC1=O [Compound 46],,,0.6 µM,
CC(C)(C)NC(=O)CN1C2CC1CN(CC(=O)NC1CCCC(OC(F)F)C1)C2 (stereo not shown) [Compound 321],,66.321%,0.819 µM,
O=C(CN1CC2CC(C1)N2CC1(O)CCC(F)(F)CC1)NC12CC3CC(CC(C3)C1)C2 [Compound 278],,45.568%,1.21 µM,
CC(C)(NC(=O)CN1C2CC1CN(Cc1nc3c(Cl)ccc(F)c3[nH]1)C2)C(F)(F)F [Compound 181],0.0423 µM,102.49%,,
CC(C)(C)NC(=O)CN1CC2CC1CN2CC(=O)Nc1cc(F)cc(Cl)c1 (stereo not shown) [Compound 130],,92.618%,0.121 µM,
CC(C)(C)NC(=O)CN1C2CC1CN(CC(=O)Nc1ccc(F)c(OC(F)F)c1)C2 [Compound 244],,90.346%,0.179 µM,
CC(C)(NC(=O)CN1C2CC1CN(Cc1nc3c(F)ccc(F)c3[nH]1)C2)C(F)(F)F [Compound 166],,87.157%,0.253 µM,
CC(C)(C)NC(=O)CN1C2CC1CN(CC(=O)NC13CC4CC(CC(F)(C4)C1)C3)C2 [Compound 315],,72.558%,0.592 µM,
COc1ccc(F)c(NC(=O)CN2CC3CC(C2)N3CC(=O)NC(C)(C)C)c1 [Compound 222],,52.3%,1.1 µM,
CC1(C)CC(CN2C3CC2CN(Cc2nc4c(Cl)cc(F)cc4[nH]2)C3)CCO1 (stereo not shown) [Compound 112],,82.988%,,
CC(C)(C)NC(=O)CN1C2CCC1CN(Cc1nc3ccccc3[nH]1)C2 [Compound 188],,75.55%,0.485 µM,
CC(C)(C)NC(=O)CN1C2CC1CN(CC(=O)NCC13CC4CC(CC(C4)C1)C3)C2 [Compound 306],,34.765%,1.99 µM,
CC(C)(C)NC(=O)CN1C[C@@H]2C[C@H]1CN2CC(=O)Nc1ccn(Cc2ccc(C#N)cn2)n1 [Compound 314],,5.0515%,,
CC(C)(C)NC(=O)CN1CCO[C@H](CNC(=O)c2ccc(F)c(OC(F)F)c2)C1 [Compound 367],,,5.72 µM,
CC(C)(C)NC(=O)CN1C2CC1CN(C(=O)NC13CC4CC(CC(C4)C1)C3)C2 [Compound 303],,23.993%,8.85 µM,
Fc1cc(Cl)c2nc(CN3CC4CCC(C3)N4CCN3CCC(F)(F)CC3)[nH]c2c1 [Compound 90],,99.043%,,
CC(C)(C)NC(=O)CN1CCC(CNc2nccc3c(Cl)cc(F)cc23)CC1 [Compound 124],,67.808%,0.645 µM,
CC(C(=O)Nc1ccc(F)c(Cl)c1)N1C[C@@H]2C[C@H]1CN2CC(=O)NC(C)(C)C (stereo partly shown) [Compound 264],,85.955%,0.242 µM,
Fc1cc(Cl)c2nc(CN3CC4CC(C3)N4CCC3CCC(F)(F)CC3)[nH]c2c1 [Compound 104],< 0.0782 µM,99.877%,,
COc1cc(NC(=O)CN2CC3CC(C2)N3CC(=O)NC2(C(F)(F)F)CC2)ccc1F [Compound 257],,89.324%,0.232 µM,
CC1(NC(=O)CN2CC3CC2CN3CC(=O)Nc2ccc(F)c(Cl)c2)CC1 (stereo not shown) [Compound 234],,51.647%,1.25 µM,
CC(C)(C)NC(=O)CN1C2CC1CN(Cc1nc3c(Cl)cc(F)cc3o1)C2 [Compound 115],,,4.36 µM,
Fc1cc(Cl)c2nc(CN3CCN(CC(F)(F)C4CCCCC4)CC3)[nH]c2c1 [Compound 162],,73.357%,0.416 µM,
Fc1cc(Cl)c2nc(CN3CCN(CC(F)(F)C4CCCC4)CC3)[nH]c2c1 [Compound 160],,73.495%,0.652 µM,
